Assay [1] can be described thus: Area under the curve of blood glucose (G-AUC) after meal and coffee containing the sweetener composition. It is filed as in vivo, human. The procedure: (§1) The sweetener composition intake was conducted by providing subjects with an identical meal and then allowing them to drink coffee containing the sweetener composition.
(§2) In order to measure changes in blood glucose after the meal, blood glucose level before meal was checked, followed by providing the subjects with the meal and then coffee was given. Blood glucose was measured for 2 hours at intervals of 30 minutes.

Assay [2] in a line: Changes in blood glucose after an identical meal and coffee containing the sweetener composition. Format: in vivo, human. To be noted: for Post-meal increase in blood glucose: result in words. The procedure:
(1) Preparation of Test Specimen for Measuring Blood Glucose and Method of Intake
as §1
(2) Measurement of Changes in Blood Glucose Levels
as §2

Where [3] appears, read: 0 min (before meal), normal subjects, five males and five females.
The mark [4] stands for this setting: 30 min after meal and coffee, * = p < 0.01 or less vs Comparative Example 1 (sugar).
[5] abbreviates: 60 min after meal and coffee, * = p < 0.01 or less vs Comparative Example 1 (sugar).
Where [6] appears, read: 90 min after meal and coffee, * = p < 0.01 or less vs Comparative Example 1 (sugar).

Molecules are shown by their SMILES.

Take `OC[C@H]1O[C@@](CO)(O[C@H]2O[C@H](CO)[C@@H](O)[C@H](O)[C@H]2O)[C@@H](O)[C@@H]1O` [Comparative Example 1, Sugar]: the G-AUC in assay [1] (to 30 min) amounted to 3483 mg·min/dL; in assay [1] (to 60 min), 7425 mg·min/dL; in assay [1] (to 90 min) it was 10758 mg·min/dL; in assay [1] (to 120 min), 13686 mg·min/dL. In addition, the Blood glucose in assay [2] (setting [3]) turned out to be 93.1 mg/dL; in assay [2] (setting [4]), 139.1 mg/dL; in assay [2] (setting [5]), 123.7 mg/dL; in assay [2] (setting [6]), 98.5 mg/dL; in assay [2] (120 min after meal and coffee), 96.7 mg/dL. Besides, in assay [2], the “Post-meal increase in blood glucose” value is “highest increase in blood glucose”.

Consider `OC[C@@H](O)[C@@H](O)CO` [Comparative Example 2, Erythritol], for which the G-AUC in assay [1] (to 30 min) was 3449 mg·min/dL; in assay [1] (to 60 min), 7329 mg·min/dL; in assay [1] (to 90 min), 10619 mg·min/dL; in assay [1] (to 120 min), 13542 mg·min/dL. The Blood glucose is recorded as 92.8 mg/dL in assay [2] (setting [3]); 137.1 mg/dL in assay [2] (setting [4]); 121.6 mg/dL in assay [2] (setting [5]); 97.7 mg/dL in assay [2] (setting [6]); 97.2 mg/dL in assay [2] (120 min after meal and coffee). The “Post-meal increase in blood glucose” value in assay [2] is reported as “increase in blood glucose due to the meal only”.

For `O=C(CO)[C@H](O)[C@H](O)[C@H](O)CO` [Comparative Example 3, D-psicose], the G-AUC in assay [1] (to 30 min) amounted to 3236 mg·min/dL; in assay [1] (to 60 min), 6803 mg·min/dL; in assay [1] (to 90 min), 9917 mg·min/dL; in assay [1] (to 120 min), 12725 mg·min/dL. Moreover, the Blood glucose in assay [2] (setting [3]) came to 92.4 mg/dL; in assay [2] (setting [4]), 123.3 mg/dL; in assay [2] (setting [5]), 114.5 mg/dL; in assay [2] (setting [6]), 93.1 mg/dL; in assay [2] (120 min after meal and coffee), 94.1 mg/dL. In addition, in assay [2], the “Post-meal increase in blood glucose” value is “lowering increase in blood glucose after the meal”.

For the origin of these results see patent publication US20160324201A1, “SWEETENER COMPOSITION FOR ALLEVIATING DIABETES, CONTAINING SLOWLY DIGESTIBLE INGREDIENT” (CJ CHEILJEDANG CORPORATION, priority 2011, published 2016).
